Experimental data from publication PMC9001717, “Tyrosine 121 moves revealing a ligandable pocket that couples catalysis to ATP-binding in serine racemase” (Communications Biology, 2022).

Tests used:
[1] = biological target: T1, human serine racemase (hSR) WT (Homo sapiens, UniProt Q9GZT4, C2D/C6D); assay: L- to D-Ser racemisation coupled luminescence assay, wild-type hSR; format: biochemical; settings: wild-type hSR; 1 mM ATP, 2 mM L-serine, 16.7% DMSO; ~ = extrapolated with artificial 100% point at 1 M
T1 construct: (His)6 (C); made in house; host or cells: E. coli (BL21-CodonPlus (DE3)-RIL for the mutants; the wild type is only 'as described[33]')
T1 sequence (Q9GZT4 1-340 C2D/C6D): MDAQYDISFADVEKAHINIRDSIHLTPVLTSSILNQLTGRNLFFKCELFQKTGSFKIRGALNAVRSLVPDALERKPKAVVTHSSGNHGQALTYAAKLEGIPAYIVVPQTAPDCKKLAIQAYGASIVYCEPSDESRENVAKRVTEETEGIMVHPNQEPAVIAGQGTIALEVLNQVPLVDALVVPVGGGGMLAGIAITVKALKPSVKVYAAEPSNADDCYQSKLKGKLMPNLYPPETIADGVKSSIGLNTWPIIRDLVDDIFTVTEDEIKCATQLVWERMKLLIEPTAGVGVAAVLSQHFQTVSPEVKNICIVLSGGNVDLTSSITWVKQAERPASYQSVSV
Method: (§1) The ability of compounds to inhibit the L to D-Ser racemisation activity of hSR was measured in a coupled assay. In the assay, hSR converts L-Ser to D-Ser. The D-Ser is then converted into pyruvate, ammonia and hydrogen peroxide using D-amino acid oxidase. Next, the hydrogen peroxide reacts with luminol in the presence of horseradish peroxidase, producing luminescent by-product. In the assay malonate was used as a control compound and gave 100% inhibition – results for XChem compounds are shown in Supplementary Table 4 and in supplementary Fig. 12. The activity of the wild-type and the three Y121 mutants, Y121F, Y121A and Y121G was measured at six ATP concentrations (1 mM, 0.5 mM, 0.25 mM, 0.125 mM, 0.062 mM and 0.031 mM) as shown in supplementary Fig. 11.
(§2) The inhibition of hSR activity was measured using a luminescence assay in a 384 well plate (flat bottom white, Corning). Initially, each well contained 100 mM Tris pH 8.5, 0.05% Pluronic f-127 (VWR), 1 mM MgCl2, 1 mM ATP (disodium salt, Fisher), 10 µM PLP, 0.3 nM hSR, 2 mM L-serine and compound at 16.67 mM to 0.0077 mM (see supplementary Fig. 12) and had 16.7% DMSO concentration. The plate was incubated at RT with shaking for 30 min. After this, the reaction was stopped using a detection mix. The final well concentration was 100 mM Tris pH 8.5, 0.05% Pluronic f-127 (VWR), 1 mM EDTA (Fisher), 0.25 U/mL horseradish peroxidase, 0.5 U/mL D-amino acid oxidase and 25 µM Luminol (Insight Biotechnology) and 8.4% DMSO. The plate was left to incubate covered and shaking for 10 min. The plate was then read using a PHERAstar (BMG) plate reader. For the ATP dependant activity data, the method was kept the same, except for varying the concentration of ATP.
(§3) The relative light units read (x) on the PHERAstar were converted into percentage inhibition (PI) using the equation: PI=100x[1−(x−Min)/(Max−Min)] where min is negative control (100% inhibition) and max is the positive control (no inhibition). The IC50s were calculated with GraphPad (Prism 8.3.1, Graphpad Software, San Diego CA).

hSR Y121A = biological target: T2, hSR Y121A (Homo sapiens, UniProt Q9GZT4, C2D/C6D/Y121A); assay: L- to D-Ser racemisation coupled luminescence assay, Y121A mutant; format: biochemical; settings: 1 mM ATP, 2 mM L-serine, 16.7% DMSO, ~ = extrapolated
T2 construct: (His)6 (C); made in house; host or cells: E. coli BL21-CodonPlus (DE3)-RIL
T2 sequence (Q9GZT4 1-340 C2D/C6D/Y121A): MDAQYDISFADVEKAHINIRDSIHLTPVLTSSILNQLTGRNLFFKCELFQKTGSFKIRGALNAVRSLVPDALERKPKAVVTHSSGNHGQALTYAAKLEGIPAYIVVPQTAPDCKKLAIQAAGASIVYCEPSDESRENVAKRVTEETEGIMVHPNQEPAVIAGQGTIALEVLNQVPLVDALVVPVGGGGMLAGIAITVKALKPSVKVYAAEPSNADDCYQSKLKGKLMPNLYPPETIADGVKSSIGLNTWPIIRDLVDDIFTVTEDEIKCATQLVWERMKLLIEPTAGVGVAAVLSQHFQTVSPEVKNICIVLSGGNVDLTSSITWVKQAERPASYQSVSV
Method: as §1, §2, §3

hSR Y121F = biological target: T3, hSR Y121F (Homo sapiens, UniProt Q9GZT4, C2D/C6D/Y121F); assay: L- to D-Ser racemisation coupled luminescence assay, Y121F mutant; format: biochemical; settings: 1 mM ATP, 2 mM L-serine, 16.7% DMSO, ~ = extrapolated
T3 construct: (His)6 (C); made in house; host or cells: E. coli BL21-CodonPlus (DE3)-RIL
T3 sequence (Q9GZT4 1-340 C2D/C6D/Y121F): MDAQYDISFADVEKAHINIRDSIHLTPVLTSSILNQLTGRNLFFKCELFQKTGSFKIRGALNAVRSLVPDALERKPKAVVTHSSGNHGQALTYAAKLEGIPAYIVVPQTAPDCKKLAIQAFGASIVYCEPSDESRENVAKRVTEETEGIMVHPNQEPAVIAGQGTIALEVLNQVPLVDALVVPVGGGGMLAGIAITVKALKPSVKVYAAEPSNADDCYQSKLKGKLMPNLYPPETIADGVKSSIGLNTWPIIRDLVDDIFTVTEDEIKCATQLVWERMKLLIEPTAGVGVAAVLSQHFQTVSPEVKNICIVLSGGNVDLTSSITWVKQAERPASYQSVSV
Method: as §1, §2, §3

hSR Y121G = biological target: T4, hSR Y121G (Homo sapiens, UniProt Q9GZT4, C2D/C6D/Y121G); assay: L- to D-Ser racemisation coupled luminescence assay, Y121G mutant; format: biochemical; settings: 1 mM ATP, 2 mM L-serine, 16.7% DMSO, ~ = extrapolated
T4 construct: (His)6 (C); made in house; host or cells: E. coli BL21-CodonPlus (DE3)-RIL
T4 sequence (Q9GZT4 1-340 C2D/C6D/Y121G): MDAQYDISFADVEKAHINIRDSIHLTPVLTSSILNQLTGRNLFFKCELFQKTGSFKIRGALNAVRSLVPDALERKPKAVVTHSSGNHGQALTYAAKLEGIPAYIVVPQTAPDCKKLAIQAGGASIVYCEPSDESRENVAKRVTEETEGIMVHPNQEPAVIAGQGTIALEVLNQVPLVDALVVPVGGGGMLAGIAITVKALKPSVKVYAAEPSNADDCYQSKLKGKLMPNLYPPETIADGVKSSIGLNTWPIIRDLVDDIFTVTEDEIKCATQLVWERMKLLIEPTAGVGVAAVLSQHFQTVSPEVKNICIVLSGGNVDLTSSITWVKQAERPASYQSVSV
Method: as §1, §2, §3

hSR Tyr 121 pocket = biological target: T5, hSR Tyr 121 pocket (Homo sapiens, UniProt Q9GZT4, C2D/C6D); assay: XChem crystallographic fragment screen; format: binding; parameters: key: A = best; D = worst; settings: crystals soaked with 150 mM fragment
T5 construct: (His)6 (C); made in house; host or cells: E. coli (BL21-CodonPlus (DE3)-RIL for the mutants; the wild type is only 'as described[33]')
T5 sequence (Q9GZT4 1-340 C2D/C6D): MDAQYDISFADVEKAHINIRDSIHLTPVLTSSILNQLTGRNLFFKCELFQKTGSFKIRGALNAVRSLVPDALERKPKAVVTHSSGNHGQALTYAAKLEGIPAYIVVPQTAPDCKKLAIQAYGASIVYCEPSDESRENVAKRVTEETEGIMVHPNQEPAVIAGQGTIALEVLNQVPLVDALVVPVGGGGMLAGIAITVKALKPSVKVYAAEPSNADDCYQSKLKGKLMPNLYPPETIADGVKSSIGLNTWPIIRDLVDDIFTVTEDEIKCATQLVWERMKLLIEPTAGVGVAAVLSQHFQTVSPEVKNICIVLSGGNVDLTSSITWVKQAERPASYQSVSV
Method: A crystallographic fragment screen was performed on holo crystals using the XChem screening strategy at Diamond Light Source[58]. For the XChem experiments, holo crystals were generated at 20 °C in 96-well Swissci 3-drop, sitting drop plates (Molecular Dimensions) using 14 mg/mL SR plus fresh 5 mM DTT dispensed in a 3:2 ratio (300 nL protein + 200 nL reservoir) equilibrated against 20 μL reservoir containing 100 mM MES pH 6.2, 100 mM Calcium chloride, 5% ethylene glycol and 20% PEG Smear Broad (Molecular Dimensions). This crystallisation condition differs from that reported in a recent crystal structure of holo SR (6SLH) which was crystallised against reservoir/precipitate of 100 mM Bis-Tris pH 6.5, 15% PEG 3350, 250 mM MgCl2[33]. ATP was present in the protein delivery buffer at 1.25-fold times the protein subunit concentration.
Crystal soaking, harvesting, mounting, and data collections were performed at the Diamond Light Source XChem facilities and beamline I04-1 through the XChem workflow[50],[59]. […] The full compound screen was performed on 600 crystals which were each soaked with 150 mM fragment compound (30% v/v of 500 mM stocks in DMSO) for ≥1.5 h before crystals were harvested and mounted on the fast microscope crystal mounting system. The fragments screened were obtained from the Diamond-SGC-iNext Poised (DSiP) XChem library.
The structure of the representative XChem holo crystal (20% DMSO soak, no fragment) presented in this paper (6ZUJ) was solved by rigid body refinement based on a previous structure (6SLH)[33] and refined with phenix.refine[71] and REFMAC5[68],[72] and modelled in coot[69]. Initial analysis of approx. 600 ligand-soaked crystals was carried out using XChemExplorer[59] a data-management and workflow tool to support large-scale simultaneous analysis of protein–ligand complexes during structure-based ligand discovery. The workflow flagged 95 structures with binding events, 44 of which were classified as interesting, spanning four distinct binding sites. Five SR structures from the XChem screen are described in this paper that are representative examples of the four major binding sites. One compound, 2-x0406, occupied not just one of the four major binding sites, but also occupied a second site adjacent to the tyrosine 121 pocket.

rat brain SR = system: rat brain SR; parameters: method as in PMID 30918891, PMID 12021263; settings: 10 μM ion; cited from earlier work
SR [2] = settings: review of SR inhibitors; cited from earlier work
SR [3] = system: SR; parameters: method as in supplementary refs 2, 11-32; settings: literature summary; ref supplementary refs 2, 11-32; cited from earlier work

SMILES | IC50 [1] | IC50 (hSR Y121A) | IC50 (hSR Y121F) | Initial rank from examination of XChem electron density/fit (hSR Tyr 121 pocket) | further results
O=C(NCc1nc2ccccc2[nH]1)c1ccco1 [2-x0406] | ~3.7 mM | ~8.4 mM | ~7.8 mM |  | IC50 (hSR Y121G): ~7.4 mM
NCc1cc(-c2ccccc2)no1 [12-x0437] | ~25.3 mM | ~37.6 mM | ~29.9 mM | D | IC50 (hSR Y121G): ~26.3 mM
CCCc1nnc(NC(=O)c2ccccn2)s1 [8-x0127] |  |  |  | D | 
Cn1nccc1C(=O)NCc1cccs1 [9-x0154] |  |  |  | D | 
[Mn+2] [Mn^2+] |  |  |  |  | SR activity in the presence of the ion (rat brain SR): 153%
[Mg+2] [Mg^2+] |  |  |  |  | SR activity in the presence of the ion (rat brain SR): 112%
N[C@@H](CC(=O)NO)C(=O)O [L-aspartic acid β-hydroxamate] |  |  |  |  | Ki (SR [2]): < 0.1 mM; Inhibition mode (SR [3]): Competitive
N[C@H](C(=O)O)[C@H](O)C(=O)O [L-erythro-3-hydroxy-aspartate] |  |  |  |  | Ki (SR [2]): < 0.1 mM; Inhibition mode (SR [3]): Competitive
OCc1ccc(-n2cnc3ccccc32)cc1 [14-x0478] | ~6.9 mM | ~7.85 mM | ~7.4 mM |  | 
CC(CS(N)(=O)=O)c1ccccc1 (stereo not drawn) [10-x0302] |  |  |  | D | 
